Test results: patent US9700058B2, “Dispersion and detachment of cell aggregates” (priority 2011, dated 2017)

Tests used:
Assay type in all cases: cell-based
Pseudomonas aeruginosa [1] = experiment: Enhancement of Kanamycin activity, BacTiter-Glo viability; conditions: peptide 100 ng/ml with Kanamycin vs Kanamycin alone, 24 hours
Procedure: (§1) The ability of grZ14s-nvCyc to enhance the activity of Kanamycin was performed by first incubating the wells in a 96-well plate with Pseudomonas aeruginosa for 24 hours at 37° C. and 50 rpm shaking. The plate was washed 2 times with phosphate buffer solution. The wells were then filled with either Kanamycin alone or Kanamycin with grZ14s-nvCyc (100 ng/ml). The wells were then incubated for 24 hours at 37° C. and 50 rpm shaking. The plates were again washed 2 times with PBS. BacTiter-Glo Microbial Cell Viability Assay (Promega, USA) was used following the manufacturer protocol and luminescence read.

Staphylococcus aureus = experiment: Enhancement of Vancomycin activity on 24-h biofilm, live bacteria by plating; conditions: peptide 100 ng/ml with Vancomycin vs Vancomycin alone
Procedure: The ability of grZ14s-nvCyc to enhance the activity of Vancomycin was performed by first incubating the wells in a 96-well plate with Staphylococcus aureus for 24 hours at 37° C. and 50 rpm shaking. The plate was washed 2 times with phosphate buffer solution. The wells were then filled with either the antibiotic alone or the antibiotic with grZ14s-nvCyc (100 ng/ml). The wells were then incubated for 24 hours at 37° C. and 50 rpm shaking. 0.3% triton X-100 and 0.45% EDTA were then added to the wells, bringing the wells to a final concentration of 0.075% triton X-100 and 0.1125% EDTA. The plates were then sonicated in a bath-sonicator for 12 minutes. The wells were then serially diluted in PBS. The solutions were then seeded on a blood plate agar and incubated at 37° C. for 24 hours.

[2] = test system: Pseudomonas aeruginosa (ATCC 27853); experiment: Detachment of pre-formed biofilm from a well (Examples 1-7); conditions: 24-hour peptide incubation, different concentrations, crystal violet OD 595 nm
Procedure: A biofilm was created by incubating Pseudomonas aeruginosa (ATCC 27853) overnight in wells at 37° C., allowing the microorganism to attach to the well surface. Eqt2Z-cyc peptide [Custom Peptide Synthesis; Peptron, Korea] at different concentrations was subsequently added to the wells and allowed to incubate overnight. The P.a. control was Pseudomonas aeruginosa alone.
(§2) A biofilm was created by culturing Pseudomonas aeruginosa (ATCC 27853) for 2 hours in a well at 37° C. Eqt2Z-cyc peptide at different concentrations was subsequently added to the well and allowed to incubate overnight. The Abac10-cyc peptide served as a negative control. The P.a. control was Pseudomonas aeruginosa alone.
as §2, with “for 24 hours.” for “overnight.”, “alone. […] Staining was performed with crystal violet at OD 595 nm.” for “alone.”
A biofilm was created by culturing Pseudomonas aeruginosa (ATCC 27853) for 2 hours in a well at 37° C. grZ14s-nvCyc peptide [Custom Peptide Synthesis; Peptron, Korea] at different concentrations was subsequently added to the well and allowed to incubate for 24 hours. The Abac10-cyc peptide served as a negative control. The P.a. control was Pseudomonas aeruginosa alone. […] Staining was performed with crystal violet at OD 595 nm.
(§3) A biofilm was created by culturing Pseudomonas aeruginosa (ATCC 27853) for 24 hours in a well at 37° C. Eqt2Z-cyc peptide at different concentrations was subsequently added to the well and allowed to incubate for 24 hours. The Abac10-cyc peptide served as a negative control. The P.a. control was Pseudomonas aeruginosa alone. […] Staining was performed with crystal violet at OD 595 nm.
as §3, with “grZ14s-nvCyc” for “Eqt2Z-cyc”
A biofilm was created by culturing Pseudomonas aeruginosa (ATCC 27853) for 24 hours in a well at 37° C. PhyscoZ-Cyc peptide [Custom Peptide Synthesis; Peptron, Korea] at different concentrations was subsequently added to the well and allowed to incubate for 24 hours. The P.a. control was Pseudomonas aeruginosa alone. […] Staining was performed with crystal violet at OD 595 nm.

Candida albicans = experiment: Enhancement of antifungal activity, BacTiter-Glo viability; conditions: 24 hours
Procedure: as §1, with “of Amphotericin” for “of Kanamycin”, “with Candida albicans” for “with Pseudomonas aeruginosa”, “either the antifungal” for “either Kanamycin”, “or the antifungal” for “or Kanamycin”
as §1, with “of Fluconazole” for “of Kanamycin”, “with Candida albicans” for “with Pseudomonas aeruginosa”, “either the antifungal” for “either Kanamycin”, “or the antifungal” for “or Kanamycin”

Pseudomonas aeruginosa [3] = experiment: Enhancement of antibiotic activity on 24-h biofilm, live bacteria by plating
Procedure: The ability of grZ14s-nvCyc to enhance the activity of Imipenem or Ampicillin was performed by first incubating the wells in a 96-well plate with Pseudomonas aeruginosa for 24 hours at 37° C. and 50 rpm shaking. The plate was washed 2 times with phosphate buffer solution. The wells were then filled with either the antibiotic alone or the antibiotic with grZ14s-nvCyc (100 ng/ml). The wells were then incubated for 48 hours (24 hours for Ampicillin) at 37° C. and 50 rpm shaking. 0.3% triton X-100 and 0.45% EDTA were then added to the wells, bringing the wells to a final concentration of 0.075% triton X-100 and 0.1125% EDTA. The plates were then sonicated in a bath-sonicator for 12 minutes. The wells were then serially diluted in PBS. The solutions were then seeded on a blood plate agar and incubated at 37° C. for 24 hours.

CSVHSFDYDWYNVC [grZ14s-nvCyc]
number of live bacteria (Pseudomonas aeruginosa [1]): much lower | number of live bacteria (Staphylococcus aureus): much lower | microorganism detachment ([2]; 2-hour biofilm): far greater microorganism detachment than in the P.a. control or negative control | microorganism detachment ([2]; 24-hour biofilm): far greater microorganism detachment than in the P.a. control or negative control | number of live fungus (Candida albicans; peptide 100 ng/ml with Amphotericin vs Amphotericin alone): much lower | number of live fungus (Candida albicans; peptide 100 ng/ml with Fluconazole vs Fluconazole alone): much lower | number of live bacteria (Pseudomonas aeruginosa [3]; peptide 100 ng/ml with Ampicillin vs Ampicillin alone, 24 hours): much lower | number of live bacteria (Pseudomonas aeruginosa [3]; peptide 100 ng/ml with Imipenem vs Imipenem alone, 48 hours): much lower
